The results in this text go back to ChEMBL document CHEMBL1201862, “PubChem BioAssay data set” (2004).

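Each compound was tested at five concentrations against cells in 96-well plates for 48 hours. Abbreviation: GI50, concentration required for 50% inhibition of growth.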 The source made the active and inactive calls. Cut-off read from the data, not from the text of the source: active = GI50 up to about 1.1 µM and inactive = higher. A value given as a limit tells only on which side of the number the result lay.

Test systems include BT-549; UACC-62; SK-MEL-5; NCI-H460; SN12C; 786-0; A549; HCC 2998; HL-60; OVCAR-4; CCRF-CEM; SNB-75; NCI-H23; CAKI-1; SF-295; MCF7; LOX IMVI; SR; A498; MDA-N.
Assay in all cases: inhibition of tumour cell growth, NCI panel, 48 h

On to `O=C1CCCc2c1c1c(n2Cc2ccccc2)-c2ccccc2C1=O`, for which the GI50 in the test on BT-549 is 22.8 µM (inactive); in the test on UACC-62 it was 17.9 µM (inactive); in the test with SK-MEL-5, 18.7 µM (inactive); in the test on NCI-H460, 25.8 µM (inactive); with SN12C, 19.3 µM (inactive); in the test with 786-0, 21.6 µM (inactive). Besides, the GI50 in the test on A549 was 23 µM (inactive); with HCC 2998, 15.2 µM (inactive); in the test on HL-60, 23.9 µM (inactive); in the test on OVCAR-4, 14 µM (inactive); in the test with CCRF-CEM it was 31 µM (inactive); in the test on SNB-75 it was 62.5 µM (inactive). In addition, the GI50 was 14.9 µM (inactive) in the test on NCI-H23; 21.1 µM (inactive) in the test with CAKI-1; 15.7 µM (inactive) in the test with SF-295; 29 µM (inactive) with MCF7; 17.9 µM (inactive) in the test with LOX IMVI.

As to `CCOC(=O)CSc1nc(-c2ccccc2)c(C#N)c(=O)[nH]1`, the GI50 in the test on BT-549, with UACC-62, with SK-MEL-5, in the test on SR, in the test on A498 and with NCI-H460 was > 100 µM (inactive) each time. For the same compound, the GI50 in the test with SN12C, with 786-0, in the test with A549, in the test on HCC 2998, in the test with HL-60 and in the test on OVCAR-4 was > 100 µM (inactive) each time. The GI50 in the test on CCRF-CEM, with SNB-75, in the test on NCI-H23, with CAKI-1, in the test with SF-295 and in the test on MCF7 was > 100 µM (inactive) in each case.

As for `CC1CCC/C1=C(/I)C(=O)c1ccccc1` (centres undefined), the GI50 is 86.7 µM (inactive) with UACC-62; 26.2 µM (inactive) in the test on SK-MEL-5; 30.8 µM (inactive) with SR; > 100 µM (inactive) with NCI-H460; > 100 µM (inactive) in the test on SN12C; > 100 µM (inactive) in the test with 786-0. Further, the GI50 with A549 is 98.2 µM (inactive); with HCC 2998, > 100 µM (inactive); in the test with MDA-N, 36.6 µM (inactive); in the test with HL-60, 39.5 µM (inactive); with OVCAR-4 it was 85.7 µM (inactive); in the test on CCRF-CEM it was 30.4 µM (inactive). For the same compound, the GI50 with SNB-75 is 16.1 µM (inactive); with NCI-H23, 74.5 µM (inactive); in the test with CAKI-1, 2.97 µM (inactive); with SF-295 it was 27 µM (inactive); with LOX IMVI, 9.16 µM (inactive).

As to `CC1(C)CC(=O)c2c(nc3c(ccc4ccccc43)c2-c2ccc(NC(=O)CCCCC(=O)Nc3ccc(-c4c5c(nc6c4ccc4ccccc46)CC(C)(C)CC5=O)cc3)cc2)C1`, the GI50 in the test on SK-MEL-5 is 32.1 µM (inactive); in the test with NCI-H460 it was 27.7 µM (inactive); with SN12C it was 33.1 µM (inactive); in the test on 786-0 it was 42.2 µM (inactive); with A549 it was 53.7 µM (inactive); in the test with MDA-N it was 26.4 µM (inactive). Moreover, the GI50 in the test with HL-60 was 29.6 µM (inactive); in the test on CCRF-CEM it was 20.7 µM (inactive); in the test on SNB-75, 16.3 µM (inactive); in the test on CAKI-1 it was 35.3 µM (inactive); in the test with SF-295, 19.6 µM (inactive); in the test with MCF7, 32.2 µM (inactive). Also, the GI50 with LOX IMVI is 17.6 µM (inactive).

With `CN(C)CCNC(=O)Cn1cnc2cccc([N+](=O)[O-])c2c1=O`, the GI50 with UACC-62, in the test on SK-MEL-5, in the test with SR, with A498, in the test with NCI-H460 and in the test with SN12C was > 100 µM (inactive) each time. For the same compound, the GI50 with 786-0, in the test on A549, in the test with HCC 2998, with MDA-N, with HL-60 and with OVCAR-4 was > 100 µM (inactive) in each case. For the same compound, the GI50 in the test with CCRF-CEM, with NCI-H23, in the test with CAKI-1, in the test with SF-295, in the test on MCF7 and in the test with LOX IMVI was > 100 µM (inactive) each time.

Turning to `CN1C(=O)C(O)CC1c1cccc(C(F)(F)F)c1` (centres undefined), the GI50 in the test with BT-549, in the test with UACC-62, in the test with SK-MEL-5, in the test with A498, in the test with NCI-H460 and in the test on SN12C was > 100 µM (inactive) throughout. In addition, the GI50 in the test with 786-0, in the test on A549, with HCC 2998, with HL-60, in the test on OVCAR-4 and in the test with CCRF-CEM was > 100 µM (inactive) in each case. Besides, the GI50 with SNB-75, in the test with NCI-H23, with CAKI-1, with SF-295, with MCF7 and in the test on LOX IMVI was > 100 µM (inactive) in each case.

With `Nc1nc(Cl)cc(NCC2(CO)CC=CC2)n1`, the GI50 with BT-549 was 33.1 µM (inactive); in the test with UACC-62 it was > 100 µM (inactive); with SK-MEL-5, 46.3 µM (inactive); in the test on NCI-H460, > 100 µM (inactive); in the test on SN12C, > 100 µM (inactive); with 786-0 it was > 100 µM (inactive). The GI50 in the test with A549 is > 100 µM (inactive); with HCC 2998, > 100 µM (inactive); with MDA-N, > 100 µM (inactive); with OVCAR-4, 80 µM (inactive); in the test with CCRF-CEM it was > 100 µM (inactive); in the test on SNB-75, > 100 µM (inactive). Further, the GI50 with CAKI-1, in the test on SF-295, with MCF7 and with LOX IMVI was > 100 µM (inactive) each time.

For the compound `CC1=NN(C(=O)Nc2ccccc2)C(=O)C2CCC(=O)N12` (centres undefined), the GI50 with UACC-62, in the test on SK-MEL-5, with SR, in the test with A498, in the test on NCI-H460 and with SN12C was > 100 µM (inactive) throughout. Further, the GI50 in the test with 786-0, with A549, in the test with HCC 2998, with HL-60, in the test with OVCAR-4 and with CCRF-CEM was > 100 µM (inactive) throughout. Moreover, the GI50 with SNB-75 was 84.3 µM (inactive); in the test with NCI-H23, > 100 µM (inactive); in the test on CAKI-1 it was > 100 µM (inactive); with SF-295, > 100 µM (inactive); in the test on LOX IMVI, > 100 µM (inactive).

Turning to `CCN(CC)C(=S)SS(=O)(=O)c1ccc(F)cc1`, the GI50 with BT-549 is 46.1 µM (inactive); in the test on UACC-62 it was 19.9 µM (inactive); in the test on SK-MEL-5, 7.41 µM (inactive); in the test on SR it was 0.348 µM (active); in the test with A498, > 100 µM (inactive); with NCI-H460 it was 42.9 µM (inactive). For the same compound, the GI50 in the test on SN12C was 34.5 µM (inactive); with 786-0 it was 73.3 µM (inactive); in the test on HCC 2998, > 100 µM (inactive); in the test on MDA-N, 63.2 µM (inactive); in the test on OVCAR-4 it was > 100 µM (inactive); with NCI-H23, 76.4 µM (inactive). The GI50 in the test on CAKI-1 is 41 µM (inactive); in the test with SF-295, 75.3 µM (inactive); in the test with LOX IMVI, 19.6 µM (inactive).

For `Cc1ccc(S(=O)(=O)N2CCN(S(=O)(=O)c3ccc(C)cc3)Cc3ccccc3C2)cc1`, the GI50 in the test on BT-549 was 64.9 µM (inactive); with UACC-62 it was 10.1 µM (inactive); with SK-MEL-5 it was 29.3 µM (inactive); in the test on SR, > 100 µM (inactive); with NCI-H460 it was > 100 µM (inactive); in the test with SN12C it was 53.2 µM (inactive). In addition, the GI50 in the test on 786-0 was 35.2 µM (inactive); in the test with A549, 80.5 µM (inactive); in the test on HCC 2998, > 100 µM (inactive); in the test on HL-60, > 100 µM (inactive); in the test on OVCAR-4 it was 18.8 µM (inactive); in the test with CCRF-CEM, > 100 µM (inactive). Also, the GI50 in the test on NCI-H23 was 57.5 µM (inactive); with CAKI-1, 39.4 µM (inactive); in the test on SF-295, 31 µM (inactive); in the test on MCF7, 50.5 µM (inactive); with LOX IMVI it was > 100 µM (inactive).

Consider `CCOC(=O)CN1C(=O)NC(C)(c2ccccc2)C1=O` (centres undefined), for which the GI50 in the test on BT-549, with UACC-62, with SK-MEL-5, in the test with A498, in the test on SN12C and with 786-0 was > 100 µM (inactive) throughout. In addition, the GI50 in the test with A549, in the test on HCC 2998, in the test on OVCAR-4, in the test with CCRF-CEM, in the test on SNB-75 and with NCI-H23 was > 100 µM (inactive) in each case. Moreover, the GI50 in the test with CAKI-1, in the test with SF-295, in the test on MCF7 and with LOX IMVI was > 100 µM (inactive) in each case.

`Cn1c(=O)c2c(nc(N3CCOCC3)n2CCCNCC(O)c2ccc(O)c(O)c2)n(C)c1=O` (centres undefined): the GI50 in the test with BT-549 was > 100 µM (inactive); with UACC-62, > 100 µM (inactive); with SK-MEL-5, > 100 µM (inactive); in the test on SR, 10 µM (inactive); in the test with A498, > 100 µM (inactive); in the test with NCI-H460, > 100 µM (inactive). The GI50 with SN12C was 81.8 µM (inactive); in the test on 786-0, > 100 µM (inactive); in the test on A549 it was > 100 µM (inactive); in the test on OVCAR-4, > 100 µM (inactive); in the test with CCRF-CEM, > 100 µM (inactive); in the test with SNB-75, > 100 µM (inactive). Further, the GI50 in the test with NCI-H23, in the test with CAKI-1, in the test with SF-295, with MCF7 and in the test on LOX IMVI was > 100 µM (inactive) throughout.
